Patent US20250092065A1, “2-(INDAZOL-5-YL)-6-(PIPERIDIN-4-YL)-1,7-NAPHTHYRIDINE DERIVATIVES AND RELATED COMPOUNDS AS MODULATORS FOR SPLICING NUCLEIC ACIDS AND FOR THE TREATMENT OF PROLIFERATIVE DISEASES” (REMIX THERAPEUTICS INC., priority 2022, published 2025)
Read-outs that look alike come from different tables or passages of the source.

What was measured:
[1] = system: HTT mRNA; assay: RT-qPCR splicing assay, HTT mRNA canonical (CJ) and alternative (AJ) junction; assay type: cell-based, human; conditions: Homo sapiens; for AC50: HTT alternative junction mRNA, read-out: HTT AJ (increase in AJ mRNA, AC50)
In short: (§1)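 Both isoforms, CJ and AJ, read by qPCR from crude lysates of treated A673 or K562 cells; 24 h, 37 °C, maximum 10 uM. Normalization: housekeeper ΔCt, then DMSO ΔΔCt.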

[2] = system: MYB; assay: HiBiT protein abundance assay, MYB (K562 HiBiT knock-in); assay type: cell-based, human; conditions: HiBiT knock-in K562 cells, 24 hours, top dose 10 μM
In short: (§2)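 Tagged-protein levels were measured as HiBiT/LgBiT luminescence in lysed K562 knock-in cells exposed to serially diluted compound (up to 10 μM final) for 24 hours. A four-parameter logistic regression of control-normalized signal yielded the IC50.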

[3] = system: Target C; assay: HiBiT protein abundance assay, Target C (K562 HiBiT knock-in); assay type: cell-based, human; conditions: HiBiT knock-in K562 cells, 24 hours, top dose 10 μM
In short: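 K562 HiBiT knock-in cells (10000/well) were treated 24 h at 37° C with a 10-point 3-fold dilution series (top 10 μM final, ≤0.25% DMSO). HiBiT luminescence was read after lytic LgBiT detection. Percent response used unmodified K562 and DMSO-treated knock-in controls, and IC50 came from a four-parameter fit at 50% of untreated.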

[4] = system: HTT; assay: HiBiT protein abundance assay, HTT (K562 HiBiT knock-in); assay type: cell-based, human; conditions: HiBiT knock-in K562 cells, 24 hours, top dose 10 μM
In short: as §2

[5] = system: K562 cells; assay: Cell Titer Glo 2.0 cell viability (toxicity) assay, K562; conditions: 500 cells/well, 72 hours
[6] = system: SMN2 mRNA; assay: RT-qPCR splicing assay, SMN2 mRNA; assay type: cell-based, human; conditions: Homo sapiens, canonical junction qPCR panel, Table 4; read-out: SMN2 IC50 (decrease in CJ mRNA levels)
In short: as §1

[7] = system: MYB mRNA; assay: RT-qPCR splicing assay, MYB mRNA canonical (CJ) and alternative (AJ) junction; assay type: cell-based, human; conditions: Homo sapiens; for AC50: MYB alternative junction mRNA, read-out: MYB AJ (increase in AJ mRNA, AC50)
In short: as §1

[8] = HTT canonical junction mRNA, RT-qPCR, read-out: HTT CJ (decrease in CJ mRNA levels, IC50)
[9] = canonical junction qPCR panel, Table 4, read-out: HTT IC50 (decrease in CJ mRNA levels)
[10] = MYB canonical junction mRNA, RT-qPCR, read-out: MYB CJ (decrease in CJ mRNA levels, IC50)
[11] = canonical junction qPCR panel, Table 4, read-out: MYB IC50 (decrease in CJ mRNA levels)

Structure (SMILES)	AC50 ([1]; RT-qPCR) [nM]	IC50 [1, 8] [nM]	IC50 [1, 9] [nM]	IC50 [2] [nM]	IC50 [3] [nM]	IC50 [4] [nM]	Effect of Exemplary Compounds on Cell Viability, K562 [5]	IC50 [6] [nM]	AC50 ([7]; RT-qPCR) [nM]	IC50 [7, 10] [nM]	IC50 [7, 11] [nM]
COc1cc2c(=O)n(C)cnc2cc1-c1ccc2nc(N3CCC(NC(C)(C)C)C3)ccc2n1 (centres unmarked) [Compound 168]	> 10000	> 10000	> 10000	> 10000	> 10000	> 10000	D (D represents greater than 10 μM in K562 cells)	> 10000	> 10000	> 10000	> 10000
CN1CCC2(CC1)CCN2c1ccc2nc(-c3cc4cn(C)nc4cc3O)ccc2n1 [Compound 169]	> 10000	> 10000	> 10000	1000 to 10000	> 10000	1000 to 10000	B (B represents 100-1000 nM)	1000 to 10000	> 10000	> 10000	> 10000
CN[C@H]1CCN(c2ccc3nc(-c4cc5cn(C)nc5cc4O)ccc3n2)C1 [Compound 170]	100 to 1000	< 100	< 100	100 to 1000	100 to 1000	< 100	B (B represents 100-1000 nM)	< 100	100 to 1000	100 to 1000	100 to 1000
CN[C@@H]1CCN(c2ccc3nc(-c4cc5cn(C)nc5cc4O)ccc3n2)C1 [Compound 172]	100 to 1000	< 100	< 100	< 100	100 to 1000	< 100	B (B represents 100-1000 nM)	< 100	< 100	< 100	< 100
CC(C)N[C@@H]1CCN(c2ccc3nc(-c4cc5cn(C)nc5cc4O)ccc3n2)C1 [Compound 173]	< 100	< 100	< 100	< 100	< 100	< 100	A (A represents <100 nM)	< 100	< 100	< 100	< 100
Cc1cc(=O)c2cc(O)c(-c3ccc4nc(N5CCC(NC(C)(C)C)C5)ccc4n3)cc2o1 (centres unmarked) [Compound 174]	> 10000	> 10000	> 10000	> 10000	> 10000	> 10000	A (A represents <100 nM)	> 10000	> 10000	> 10000	> 10000
Cc1nc2cc(O)c(-c3ccc4nc(N5CCC(NC(C)(C)C)C5)ccc4n3)cc2o1 (centres unmarked) [Compound 175]	< 100	< 100	< 100	< 100	< 100	< 100	B (B represents 100-1000 nM)	< 100	< 100	< 100	< 100
COc1cc2nc(C)sc2cc1-c1ccc2nc(N3CCC(NC(C)(C)C)C3)ccc2n1 (centres unmarked) [Compound 176]	1000 to 10000	1000 to 10000	1000 to 10000	1000 to 10000	1000 to 10000	1000 to 10000	C (C represents 1000-9999 nM)	1000 to 10000	1000 to 10000	1000 to 10000	1000 to 10000
COc1cc2nc(C)oc2cc1-c1ccc2nc(N3CCC(NC(C)(C)C)C3)ccc2n1 (centres unmarked) [Compound 177]	1000 to 10000	1000 to 10000	1000 to 10000	1000 to 10000	1000 to 10000	1000 to 10000	C (C represents 1000-9999 nM)	1000 to 10000	1000 to 10000	1000 to 10000	1000 to 10000
Cn1cc2cc(-c3ccc4nc(N5CCC6(CCN6)C5)ccc4n3)c(O)cc2n1 (centres unmarked) [Compound 178]	100 to 1000	100 to 1000	100 to 1000	100 to 1000	100 to 1000	100 to 1000	B (B represents 100-1000 nM)	< 100	100 to 1000	100 to 1000	100 to 1000
CCN[C@H]1CCN(c2ccc3nc(-c4cc5cn(C)nc5cc4O)ccc3n2)C1 [Compound 179]	< 100	< 100	< 100	100 to 1000	100 to 1000	< 100	B (B represents 100-1000 nM)	< 100	< 100	100 to 1000	100 to 1000
CCN[C@@H]1CCN(c2ccc3nc(-c4cc5cn(C)nc5cc4O)ccc3n2)C1 [Compound 180]	100 to 1000	< 100	< 100	< 100	100 to 1000	< 100	A (A represents <100 nM)	< 100	< 100	< 100	< 100
Cn1cc2cc(-c3ccc4nc(N5CC[C@H](NCC(F)(F)F)C5)ccc4n3)c(O)cc2n1 [Compound 182]	> 10000	1000 to 10000	1000 to 10000	> 10000	> 10000	> 10000	D (D represents greater than 10 μM in K562 cells)	1000 to 10000	> 10000	1000 to 10000	1000 to 10000
Cn1cc2cc(-c3ccc4nc(C5CCNCC5)ccc4n3)ccc2n1 [Compound 184]	100 to 1000	100 to 1000	100 to 1000	100 to 1000	100 to 1000	100 to 1000	B (B represents 100-1000 nM)	< 100	100 to 1000	100 to 1000	100 to 1000
Cn1cc2cc(-c3ccc4nc(C5CCNCC5)ccc4n3)cc(F)c2n1 [Compound 185]	1000 to 10000	1000 to 10000	1000 to 10000	1000 to 10000	> 10000	1000 to 10000	C (C represents 1000-9999 nM)	100 to 1000	1000 to 10000	1000 to 10000	1000 to 10000
Cc1cn2nc(-c3ccc4nc(N5CCC(NC(C)(C)C)C5)ccc4n3)cc2c(C)n1 (centres unmarked) [Compound 187]	< 100	< 100	< 100	100 to 1000	< 100	< 100	B (B represents 100-1000 nM)	< 100	< 100	100 to 1000	100 to 1000
Cn1cc2cc(-c3ccc4nc(N5CC[C@@H](NC6COC6)C5)ccc4n3)c(O)cc2n1 [Compound 188]	100 to 1000	100 to 1000	100 to 1000	1000 to 10000	1000 to 10000	100 to 1000	C (C represents 1000-9999 nM)	< 100	100 to 1000	100 to 1000	100 to 1000
Cn1cc2cc(-c3ccc4nc(N5CC[C@H](NC6COC6)C5)ccc4n3)c(O)cc2n1 [Compound 189]	100 to 1000	1000 to 10000	1000 to 10000	1000 to 10000	1000 to 10000	1000 to 10000	D (D represents greater than 10 μM in K562 cells)	< 100	100 to 1000	100 to 1000	100 to 1000
Cc1nc2cc(O)c(-c3ccc4nc(N5CCC(NC(C)(C)C)C5)ccc4n3)cc2s1 (centres unmarked) [Compound 190]	> 10000	> 10000	> 10000	> 10000	> 10000	> 10000	C (C represents 1000-9999 nM)	< 100	> 10000	> 10000	> 10000
